Assay results published in the supplement of paper PMC10307832.

Experiments:
Test in all cases: relative viability (nuclei count vs DMSO), 5 days (fraction); higher = more cells survive
[1] = compound: CN(C)C/C=C/C(=O)Nc1cc2c(Nc3ccc(F)c(Cl)c3)ncnc2cc1O[C@H]1CCOC1 [Afatinib] + CC(C)C[C@H](NC(=O)[C@H](Cc1ccccc1)NC(=O)c1cnccn1)B(O)O [Bortezomib] (partner 0.002 µM)
Summary of the method: (§1)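 The day after seeding in 1536-well plates, lung cancer cell lines were treated by pin tool with a single drug, or with a fixed anchor-drug dose together with five library-drug doses (not always all listed) in √10 steps. After 5 days, a combined fix-and-stain solution (final 0.05% Triton X-100, 1% formaldehyde, 1 ug/ml Hoechst) was added. Nuclei counted on 4× images gave relative viability as treated counts over vehicle counts, reported as the median of duplicate plates.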

[2] = compound: CN(C)C/C=C/C(=O)Nc1cc2c(Nc3ccc(F)c(Cl)c3)ncnc2cc1O[C@H]1CCOC1 [Afatinib] + CC1(C)CCC(c2ccc(Cl)cc2)=C(CN2CCN(c3ccc(C(=O)NS(=O)(=O)c4ccc(N[C@H](CCN5CCOCC5)CSc5ccccc5)c(S(=O)(=O)C(F)(F)F)c4)cc3)CC2)C1 [Navitoclax] (partner 0.5 µM)
Summary of the method: as §1

[3] = compound: CN(C)C/C=C/C(=O)Nc1cc2c(Nc3ccc(F)c(Cl)c3)ncnc2cc1O[C@H]1CCOC1 [Afatinib] + Cc1nc(Nc2ncc(C(=O)Nc3c(C)cccc3Cl)s2)cc(N2CCN(CCO)CC2)n1 [Dasatinib] (partner 0.075 µM)
Summary of the method: as §1

[4] = compound: CN(C)C/C=C/C(=O)Nc1cc2c(Nc3ccc(F)c(Cl)c3)ncnc2cc1O[C@H]1CCOC1 [Afatinib] + CCNC(=O)c1noc(-c2cc(C(C)C)c(O)cc2O)c1-c1ccc(CN2CCOCC2)cc1 [Luminespib] (partner 0.01 µM)
Summary of the method: as §1

Cell Line	relative viability ([1]; first compound 0.005 µM)	relative viability ([1]; first compound 0.01581 µM)	relative viability ([1]; first compound 0.05 µM)	relative viability ([1]; first compound 0.5 µM)	relative viability ([2]; first compound 0.005 µM)	relative viability ([2]; first compound 0.01581 µM)	relative viability ([2]; first compound 0.05 µM)	relative viability ([2]; first compound 0.5 µM)	relative viability ([3]; first compound 0.005 µM)	relative viability ([3]; first compound 0.01581 µM)	relative viability ([3]; first compound 0.05 µM)	relative viability ([3]; first compound 0.1581 µM)	relative viability ([3]; first compound 0.5 µM)	relative viability ([4]; first compound 0.005 µM)	relative viability ([4]; first compound 0.01581 µM)	relative viability ([4]; first compound 0.05 µM)	relative viability ([4]; first compound 0.1581 µM)	relative viability ([4]; first compound 0.5 µM)	relative viability ([1]; first compound 0.1581 µM)	relative viability ([2]; first compound 0.1581 µM)
NCI-H1666	0.712	0.758	0.567	0.8	0.887	0.748	0.583	0.389	0.784	0.772	0.672	0.672	0.776	0.973	0.931	0.796	0.807	0.808		
NCI-H1734	1.08	0.816	0.895	0.922	1.01	0.877	0.885	0.781	0.482	0.386	0.497	0.491	0.444	0.209	0.225	0.196	0.197	0.19	0.921	0.78
NCI-H1755	0.995	0.925	0.927	1.03	0.957	0.981	1.08	0.987	0.483	0.424	0.435	0.393	0.399	0.287	0.367	0.587	0.408	0.49	0.934	0.995
NCI-H1792	0.841	0.759	0.975	0.938	0.745	0.537	0.587	0.625	0.657	0.84	0.748	0.657	0.911	0.389	0.695	0.464	0.376	0.41	0.906	0.629
NCI-H1915	0.994	1	0.938	0.952	0.795	0.763	0.779	0.778	0.361	0.347	0.313	0.301	0.304	0.807	0.848	0.772	0.743	0.596	1	0.813
NCI-H1975	0.358	0.345	0.309	0.189	1.19	1.14	1.24	0.624	0.455	0.386	0.306	0.15	0.11	0.199	0.18	0.199	0.122	0.169	0.171	0.488
NCI-H1993	0.891	0.633	0.678	0.706	0.674	0.722	0.735	0.704	0.459	0.561	0.585	0.729	0.576	0.752	0.557	0.58	0.549	0.571	0.692	0.788
NCI-H2009	1.09	1.01	0.991	1.03	1.19	1.12	1.27	1.18	0.306	0.295	0.341	0.259	0.285	1.08	1.04	1.13	1.02	1.08	1	1.15
